Laboratory results reported in patent US12011502B2, “Compositions and methods of administering baclofen” (AMNEAL PHARMACEUTICALS LLC, priority 2021, dated 2024).

Tests used:
[1] = reported in the literature; cited from earlier work
[2] = limited evaluation, literature; cited from earlier work
[3] = Solubility of baclofen in solutions comprising sulfate or phosphate; format: physicochemical
Experimental: A concentration of 8.8 mg/mL sodium chloride is considered isotonic and therefore desirable as being physiologically acceptable.

Compound	dominant metabolite of baclofen, reported share [1] [%]	biological activity of the metabolite [2]	solubility of baclofen ([3]; in solutions comprising sulfate or phosphate)	concentration of baclofen that can be dissolved ([3]; solutions containing phosphate, sulfate, potassium, sodium, or magnesium, such as greater than 3, 4, 5 or 6 mg/mL)
O=C(O)CC(CO)c1ccc(Cl)cc1 (stereo not shown) [M1, 3-(4-chlorophenyl)-4-hydroxybutyric acid]	15	inactive	–	–
NCC(CC(=O)O)c1ccc(Cl)cc1 (stereo not shown) [baclofen, 4-amino-3-(4-chlorophenyl)butanoic acid]	–	–	increased	greater than 2 mg/mL
